The subject of data set [1] is murine leukemia virus (MULV). As to conditions: for survival rate at 21 days / post-treatment CD4/CD8 ratio: 72 feet; for survival rate at 21 days: 2 hours daily; for survival rate at 21 days / mice that died during the treatment period: 12 mice per group; for post-treatment CD4/CD8 ratio / post-treatment CD4 count (FACS): 2 hours, versus post-treatment control; for post-treatment CD4/CD8 ratio: six days a week, three weeks; for hypocellular medullary sinuses of lymph nodes: H&E histology after three-week treatment; for lymph node architecture: after 21 days of treatment; for spleen size / lymph node size: after three-week treatment; for spleen size: N2 and air versus control and oxygen; for lymph node size: area = length times width of cut node; for post-treatment CD4 count (FACS): orbital blood, 72 feet of seawater, six days a week for three weeks; for physical condition / grooming: versus control and oxygen groups; for mice that died during the treatment period: days 6 and 14; for overall effect relative to control conditions: 72 ft for 2 hours, 6 days per week. As for the experimental part:
FIG. 5A represents the cross section of an actual lymph node removed from a mouse that took part in a study of the present method. […] As a result of the observations on divers in Puerto Rico, it was decided to first test this concept in murine leukemia virus-MULV mice exposed to increased pressures of nitrogen at a depth of 72 feet for 2 hours 6 days per week for 3 weeks. […] The murine model, AKR-J strain of mice which are viremic from birth, were used to test the hypotheses. The animal model was chosen because of its striking similarities to human AIDS. […] The mice were separated at random into four groups of 12 mice in each group. Group 1 was control. Group 2 was exposed to air at sea level pressure. Group 3 was exposed to N2 and Group 4 to O2 under the following conditions. The mice were placed in a small (5.88 cubic feet), temperature controlled hyperbaric chamber and compressed with Air, N2+6.5% O2 or 100% O2. Groups were taken separately to a pressure of 72 feet of seawater. The animals reached maximum treatment pressure in 6-7 minutes and remained at this pressure for 2 hours. They were then returned to normal barometric pressure at a rate of one foot per minute (72 minutes). This process was performed each day for six days a week for three weeks. The control group of animals (Group 1) was exposed to normal surface conditions for the same period of time.
Cytological and histological measurements. Pre- and post-flow cytometry (FACS) analysis was performed on samples of orbital blood from 10 animals in each group labeled with anti-mouse CD4/CD8 fluorescence markers. Animals were anesthetized using methoxyflurane and blood was collected with a heparinized Pasteur pipette. Lymphocytes were stained with anti CD4-PE and anti CD8-FITC (Pharmingen) for 15 minutes. Erythrocytes were hemolyzed in lysis solution (Becton Dickinson) for 10 minutes, washed with PBS/azide solution, centrifuged and the supernatant was discarded. The pellet was fixed with 1% formalin in PBS, and stored at 4° C. until cytometry (Becton Dickinson FACS Scan; San Jose, Calif.). At the end of the three-week treatment period, blood samples were obtained and the mice were sacrificed. The lymph nodes, spleen, thymus, liver and brain tissue were collected immediately placed in 10% formalin. Following fixation and routine paraffin processing, 4 μm sections of lymph nodes were obtained after cutting randomly selected nodes through the center parallel to the long axis of the node. The slides were stained with hematoxylin and eosin (H&E) and reviewed by a pathologist that was blinded to knowledge of animal treatment groups. The presence of secondary follicles and paracortical expansion were quantitated for each animal as a percentage of lymph nodes. As medullary sinuses were not present in every lymph node profile, the presence of medullary sinus hypocellularity was quantitated as a percentage of lymph nodes which contained sinuses. In addition the approximate surface area of the cut node was computed from the product of the length and width in its maximum dimensions. The remaining tissues were examined qualitatively for pathological changes.
FIG. 6 is bar chart showing the average size of lymph nodes taken from the mice of different groups in the study discussed above. The lymph nodes were taken from the cervical, thoracic, and abdominal regions and fixed in 10% formalin. The nodes were then sectioned through the center of the long axis, and area was computed as the product of length times width.

The conditions of data set [2]: cited from earlier work.
Where [3] appears, read: listed as Mixtures with enriched nitrogen.

“Also recorded” adds a separate entry of the source. Read-outs that look alike come from different tables or passages of the source.

As for `N#N` [N2, nitrogen], in data set [1], the “survival rate at 21 days” value worked out at 100%; the “post-treatment CD4/CD8 ratio” value is recorded as “significantly higher”; the “hypocellular medullary sinuses of lymph nodes” value was “significantly more hypocellular sinuses were present in the control group and the O2 group than in the N2 and Air groups; also recorded: significant differences in sinus cellularity”; the lymph node architecture entry is recorded as “improved lymph node architecture”. Moreover, in data set [1], the spleen size entry was “smaller by about one third”; the lymph node size result is reported as “smaller”; the “post-treatment CD4 count (FACS)” value was “increased and were significantly higher than post-treatment CD4 count in control animals”; the “physical condition / grooming” value is “better grooming”. In data set [1] (setting [3]), the “post-treatment CD4/CD8 ratio” value was “increased”, the lymph node architecture entry is “preserved” and the “physical condition / grooming” value is listed as “improved”. For the same compound, in data set [1] (listed as hyperbaric N2), the lymph node size result was “significantly attenuated the lymphadenopathy” and the “post-treatment CD4 count (FACS)” value was “improved CD4 counts”. For the same compound, in data set [1] (listed as nitrogen), the lymph node size result is on record as “significant reduction” and the “physical condition / grooming” value is given as “appeared physically more healthy; also recorded: improved physical condition”. Moreover, in data set [1] (lymph node histology), the “number of nodes with paracortical expansion” value is listed as “reduction”, the “number of nodes with secondary follicles” value is reported as “reduction” and the “number of sinuses with histiocytes” value is reported as “increase”.
For `O=O` [O2, oxygen, reference compound], in data set [1], the “mice that died during the treatment period” value is “Two”, the “survival rate at 21 days” value amounted to 83%, the “post-treatment CD4/CD8 ratio” value is listed as “significantly lower” and the “hypocellular medullary sinuses of lymph nodes” value is reported as “significantly more hypocellular sinuses”. Moreover, in data set [1], the spleen size entry was “much bigger” and the lymph node size result was “much bigger”. Also, in data set [1] (listed as oxygen), the “mice that died during the treatment period” value is listed as “two”, the “post-treatment CD4/CD8 ratio” value is given as “significantly lower” and the “overall effect relative to control conditions” value is listed as “fared worse than the control group”. Also, in data set [1] (listed as hyperbaric oxygen), the “post-treatment CD4/CD8 ratio” value is “significantly decreased”, the “overall effect relative to control conditions” value is reported as “no beneficial effect” and the “post-treatment CD4 count (FACS)” value is listed as “significantly decreased”. Also, the “overall effect relative to control conditions” value in data set [1] (listed as Oxygen) is given as “significant negative effect”.
On to `[N-]=[N+]=O` [nitrous oxide], for which the anesthetic effect result is “many subjects do not even lose consciousness” in data set [2] (90% N2O and 10% O2 at atmospheric pressure (760 mmHg)); “deep anesthesia” in data set [2] (1520 mmHg or 2 atmospheres absolute (1368 mmHg N2O+125 mmHg oxygen)).

These data come from patent US20090142416A1, “Methods for the treatment of HIV and other viruses” (priority 2003, published 2009).
